Measured values reported in patent US20090099237A1, “Methods of treating inflammatory diseases” (Roche Palo Alto LLC, priority 2007, published 2009).

Key:
Test in all cases: KinomeScan kinase profiling
Assay type in all cases: binding
Settings in all cases: 10 μM
BIKE = molecular target: T1, BIKE (Homo sapiens, UniProt Q9NSY1)
T1 construct: purchased Ambit Biosciences
Excerpt: (§1) The selectivity of a given CK1α, CK1α-CK1δ, CK1α-CK1ε or CK1α-CK1δ-CK1ε inhibitor compound can be determined by testing the compound against a panel of known kinases. An example of such a kinase profiling technology is the “KinomeScan” from Ambit Biosciences in which compounds can be screened for their modulatory activities against more than 200 known kinases.

LTK = LTK (Homo sapiens, UniProt P29376)
Excerpt: as §1

TNIK = molecular target: T2, TNIK (Homo sapiens, UniProt Q9UKE5)
T2 construct: purchased Ambit Biosciences
Excerpt: as §1

AKT1 = molecular target: T3, AKT1 (Homo sapiens, UniProt P31749)
T3 construct: purchased Ambit Biosciences
Excerpt: as §1

STK16 = molecular target: T4, STK16 (Homo sapiens, UniProt O75716)
T4 construct: purchased Ambit Biosciences
Excerpt: as §1

MYLK2 = MYLK2 (Homo sapiens, UniProt Q9H1R3)
Excerpt: as §1

TTK = molecular target: T5, TTK (Homo sapiens, UniProt P33981)
T5 construct: purchased Ambit Biosciences
Excerpt: as §1

DAPK3 = molecular target: T6, DAPK3 (Homo sapiens, UniProt O43293)
T6 construct: purchased Ambit Biosciences (San Diego, Calif.)
Excerpt: as §1

PIM2 = molecular target: T7, PIM2 (Homo sapiens, UniProt Q9P1W9)
T7 construct: purchased Ambit Biosciences
T7 sequence (Q9P1W9 whole entry): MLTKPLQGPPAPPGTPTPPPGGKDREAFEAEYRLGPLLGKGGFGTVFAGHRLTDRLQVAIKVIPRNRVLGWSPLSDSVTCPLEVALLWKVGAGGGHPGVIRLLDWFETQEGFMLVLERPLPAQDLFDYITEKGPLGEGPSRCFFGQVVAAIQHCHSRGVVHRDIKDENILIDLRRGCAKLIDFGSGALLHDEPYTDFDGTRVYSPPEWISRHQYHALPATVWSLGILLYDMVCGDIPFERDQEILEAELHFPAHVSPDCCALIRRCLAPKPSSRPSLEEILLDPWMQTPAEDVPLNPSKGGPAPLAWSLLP
Excerpt: as §1

CSNK2A1 = molecular target: T8, CSNK2A1 (Homo sapiens, UniProt P68400)
T8 construct: purchased Ambit Biosciences (San Diego, Calif.)
Excerpt: as §1

GAK = molecular target: T9, GAK (Homo sapiens, UniProt O14976)
T9 construct: purchased Ambit Biosciences
Excerpt: as §1

ABL2 = molecular target: T10, ABL2 (Homo sapiens, UniProt P42684)
T10 construct: purchased Ambit Biosciences
Excerpt: as §1

NEK2 = NEK2 (Homo sapiens, UniProt P51955)
Excerpt: as §1

FRK = molecular target: T11, FRK (Homo sapiens, UniProt P42685)
T11 construct: purchased Ambit Biosciences
Excerpt: as §1

MARK2 = MARK2 (Homo sapiens, UniProt Q7KZI7)
Excerpt: as §1

RIPK2 = molecular target: T12, RIPK2 (Homo sapiens, UniProt O43353)
T12 construct: purchased Ambit Biosciences
Excerpt: as §1

PAK3 = PAK3 (Homo sapiens, UniProt O75914)
Excerpt: as §1

FLT4 = molecular target: T13, FLT4 (Homo sapiens, UniProt P35916)
T13 construct: purchased Ambit Biosciences
Excerpt: as §1

FES = molecular target: T14, FES (Homo sapiens, UniProt P07332)
T14 construct: purchased Ambit Biosciences
Excerpt: as §1

CLK3 = molecular target: T15, CLK3 (Homo sapiens, UniProt P49761)
T15 construct: purchased Ambit Biosciences (San Diego, Calif.)
Excerpt: as §1

YES = molecular target: T16, YES (Homo sapiens, UniProt P07947)
T16 construct: purchased Ambit Biosciences
Excerpt: as §1

ERBB2 = molecular target: T17, ERBB2 (Homo sapiens, UniProt P04626)
T17 construct: purchased Ambit Biosciences
Excerpt: as §1

EPHB1 = molecular target: T18, EPHB1 (Homo sapiens, UniProt P54762)
T18 construct: purchased Ambit Biosciences (San Diego, Calif.)
T18 sequence (P54762 18-984): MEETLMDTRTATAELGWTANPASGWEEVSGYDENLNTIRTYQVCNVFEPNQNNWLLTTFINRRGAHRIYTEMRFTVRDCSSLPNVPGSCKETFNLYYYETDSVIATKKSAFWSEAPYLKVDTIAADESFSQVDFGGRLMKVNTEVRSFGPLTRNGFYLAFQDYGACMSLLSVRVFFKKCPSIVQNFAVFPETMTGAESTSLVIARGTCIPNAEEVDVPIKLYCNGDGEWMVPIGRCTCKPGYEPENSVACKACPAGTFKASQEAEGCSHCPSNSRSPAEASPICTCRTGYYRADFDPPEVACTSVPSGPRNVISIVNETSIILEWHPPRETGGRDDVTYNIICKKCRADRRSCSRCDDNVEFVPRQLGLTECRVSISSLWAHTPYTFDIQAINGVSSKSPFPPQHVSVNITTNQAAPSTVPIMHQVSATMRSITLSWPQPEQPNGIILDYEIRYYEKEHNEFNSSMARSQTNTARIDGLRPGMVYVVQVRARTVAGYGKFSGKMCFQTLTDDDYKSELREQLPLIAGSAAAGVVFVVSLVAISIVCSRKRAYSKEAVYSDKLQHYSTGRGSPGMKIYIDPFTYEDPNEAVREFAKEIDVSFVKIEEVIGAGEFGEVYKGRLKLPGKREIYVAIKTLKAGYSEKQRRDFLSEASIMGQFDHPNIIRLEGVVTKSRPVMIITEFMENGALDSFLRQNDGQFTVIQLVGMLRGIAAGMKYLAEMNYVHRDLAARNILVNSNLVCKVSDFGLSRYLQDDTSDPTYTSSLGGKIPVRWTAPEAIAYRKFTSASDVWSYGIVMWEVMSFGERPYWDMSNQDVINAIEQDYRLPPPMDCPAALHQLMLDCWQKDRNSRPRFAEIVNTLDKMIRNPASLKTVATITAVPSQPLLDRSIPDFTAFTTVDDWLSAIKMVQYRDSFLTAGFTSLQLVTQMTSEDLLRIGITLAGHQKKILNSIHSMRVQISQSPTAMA
Excerpt: as §1

ERBB4 = molecular target: T19, ERBB4 (Homo sapiens, UniProt Q15303)
T19 construct: purchased Ambit Biosciences
Excerpt: as §1

TRKA = molecular target: T20, TRKA (Homo sapiens, UniProt P04629)
T20 construct: purchased Ambit Biosciences
T20 sequence (P04629 33-796): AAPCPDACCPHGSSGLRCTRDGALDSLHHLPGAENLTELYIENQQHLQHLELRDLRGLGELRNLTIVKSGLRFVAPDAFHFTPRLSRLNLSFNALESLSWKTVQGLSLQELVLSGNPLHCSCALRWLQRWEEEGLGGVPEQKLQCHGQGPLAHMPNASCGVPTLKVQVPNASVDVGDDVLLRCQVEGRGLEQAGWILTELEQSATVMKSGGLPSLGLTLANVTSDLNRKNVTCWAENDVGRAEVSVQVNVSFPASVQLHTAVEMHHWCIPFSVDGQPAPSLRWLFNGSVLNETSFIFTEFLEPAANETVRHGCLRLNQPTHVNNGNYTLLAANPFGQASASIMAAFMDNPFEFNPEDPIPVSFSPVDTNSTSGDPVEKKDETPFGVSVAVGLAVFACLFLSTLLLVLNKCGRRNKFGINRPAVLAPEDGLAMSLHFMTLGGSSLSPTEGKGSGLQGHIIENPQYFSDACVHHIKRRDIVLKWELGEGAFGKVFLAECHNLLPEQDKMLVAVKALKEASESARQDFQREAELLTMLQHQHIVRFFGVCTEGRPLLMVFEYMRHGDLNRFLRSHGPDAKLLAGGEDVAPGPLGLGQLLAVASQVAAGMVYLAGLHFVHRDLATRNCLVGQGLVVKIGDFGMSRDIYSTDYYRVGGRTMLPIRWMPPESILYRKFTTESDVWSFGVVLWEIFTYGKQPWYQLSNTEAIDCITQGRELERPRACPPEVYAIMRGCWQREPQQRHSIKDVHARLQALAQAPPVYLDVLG
Excerpt: as §1

HCK = molecular target: T21, HCK (Homo sapiens, UniProt P08631)
T21 construct: purchased Ambit Biosciences
T21 sequence (P08631 whole entry): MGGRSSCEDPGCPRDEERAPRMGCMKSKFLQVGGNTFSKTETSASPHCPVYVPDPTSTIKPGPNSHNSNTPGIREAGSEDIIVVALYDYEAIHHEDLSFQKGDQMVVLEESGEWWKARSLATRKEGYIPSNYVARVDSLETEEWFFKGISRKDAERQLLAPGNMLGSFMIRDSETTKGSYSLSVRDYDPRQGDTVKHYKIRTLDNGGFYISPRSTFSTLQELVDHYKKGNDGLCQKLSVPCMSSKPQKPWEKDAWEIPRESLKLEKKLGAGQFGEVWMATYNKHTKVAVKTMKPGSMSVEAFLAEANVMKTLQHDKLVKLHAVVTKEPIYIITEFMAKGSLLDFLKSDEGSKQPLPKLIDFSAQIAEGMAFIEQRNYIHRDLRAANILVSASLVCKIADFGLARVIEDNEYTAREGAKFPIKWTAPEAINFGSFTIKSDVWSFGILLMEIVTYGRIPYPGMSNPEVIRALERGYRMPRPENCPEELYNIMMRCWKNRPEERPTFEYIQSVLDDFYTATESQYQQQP
Excerpt: as §1

ULK3(mouse) = molecular target: T22, ULK3(mouse) (Mus musculus, UniProt Q3U3Q1)
T22 construct: purchased Ambit Biosciences
Excerpt: as §1

NEK9 = NEK9 (Homo sapiens, UniProt Q8TD19)
Sequence of NEK9 (Q8TD19 whole entry): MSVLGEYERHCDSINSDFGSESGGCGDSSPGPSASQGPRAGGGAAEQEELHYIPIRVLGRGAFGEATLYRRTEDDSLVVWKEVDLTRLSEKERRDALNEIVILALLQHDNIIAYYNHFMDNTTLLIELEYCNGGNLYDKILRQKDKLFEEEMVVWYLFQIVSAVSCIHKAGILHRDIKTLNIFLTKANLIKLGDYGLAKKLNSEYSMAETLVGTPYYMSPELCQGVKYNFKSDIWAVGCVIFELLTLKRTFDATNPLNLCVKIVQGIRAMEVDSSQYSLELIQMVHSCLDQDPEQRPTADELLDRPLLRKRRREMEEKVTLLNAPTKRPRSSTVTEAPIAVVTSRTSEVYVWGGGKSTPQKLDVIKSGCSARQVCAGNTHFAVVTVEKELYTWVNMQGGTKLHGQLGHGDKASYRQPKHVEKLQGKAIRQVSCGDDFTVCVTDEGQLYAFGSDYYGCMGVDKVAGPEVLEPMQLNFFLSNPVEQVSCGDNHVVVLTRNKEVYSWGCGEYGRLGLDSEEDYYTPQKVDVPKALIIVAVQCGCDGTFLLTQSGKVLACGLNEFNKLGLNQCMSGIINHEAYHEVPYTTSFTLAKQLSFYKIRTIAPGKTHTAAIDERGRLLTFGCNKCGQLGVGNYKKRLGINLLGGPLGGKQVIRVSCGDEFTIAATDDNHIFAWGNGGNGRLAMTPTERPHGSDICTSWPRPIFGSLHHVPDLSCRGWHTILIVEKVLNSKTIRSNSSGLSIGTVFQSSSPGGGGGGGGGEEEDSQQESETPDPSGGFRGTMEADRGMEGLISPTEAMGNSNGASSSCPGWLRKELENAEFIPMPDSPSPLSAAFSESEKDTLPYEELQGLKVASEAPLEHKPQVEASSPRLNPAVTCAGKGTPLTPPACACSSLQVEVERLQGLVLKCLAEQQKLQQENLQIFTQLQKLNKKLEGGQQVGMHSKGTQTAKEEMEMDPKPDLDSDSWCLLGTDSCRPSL
Excerpt: as §1

CAMK2B = molecular target: T23, CAMK2B (Homo sapiens, UniProt Q13554)
T23 construct: purchased Ambit Biosciences
Excerpt: as §1

STK10 = molecular target: T24, STK10 (Homo sapiens, UniProt O94804)
T24 construct: purchased Ambit Biosciences
Excerpt: as §1

FER = molecular target: T25, FER (Homo sapiens, UniProt P16591)
T25 construct: purchased Ambit Biosciences
Excerpt: as §1

PTK2B = molecular target: T26, PTK2B (Homo sapiens, UniProt Q14289)
T26 construct: purchased Ambit Biosciences
Excerpt: as §1

SRC = molecular target: T27, SRC (Homo sapiens, UniProt P12931)
T27 construct: purchased Ambit Biosciences
Excerpt: as §1

PAK6 = PAK6 (Homo sapiens, UniProt Q9NQU5)
Excerpt: as §1

VEGFR2 = molecular target: T28, VEGFR2 (Homo sapiens, UniProt P35968)
T28 construct: purchased Ambit Biosciences
Excerpt: as §1

FLT3 = molecular target: T29, FLT3 (Homo sapiens, UniProt P36888)
T29 construct: purchased Ambit Biosciences
Excerpt: as §1

EPHA4 = molecular target: T30, EPHA4 (Homo sapiens, UniProt P54764)
T30 construct: purchased Ambit Biosciences (San Diego, Calif.)
Excerpt: as §1

NEK6 = NEK6 (Homo sapiens, UniProt Q9HC98)
Sequence of NEK6 (Q9HC98 whole entry): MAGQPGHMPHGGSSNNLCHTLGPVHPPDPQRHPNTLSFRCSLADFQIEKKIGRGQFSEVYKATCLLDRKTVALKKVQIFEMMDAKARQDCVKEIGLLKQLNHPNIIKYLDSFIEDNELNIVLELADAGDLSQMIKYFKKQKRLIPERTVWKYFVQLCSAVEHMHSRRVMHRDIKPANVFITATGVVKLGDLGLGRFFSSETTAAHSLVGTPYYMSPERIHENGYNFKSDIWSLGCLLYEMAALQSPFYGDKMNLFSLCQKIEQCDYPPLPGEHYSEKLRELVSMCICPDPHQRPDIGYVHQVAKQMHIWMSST
Excerpt: as §1

PTK2 = molecular target: T31, PTK2 (Homo sapiens, UniProt Q05397)
T31 construct: purchased Ambit Biosciences
Excerpt: as §1

T1 sequence (Q9NSY1 whole entry): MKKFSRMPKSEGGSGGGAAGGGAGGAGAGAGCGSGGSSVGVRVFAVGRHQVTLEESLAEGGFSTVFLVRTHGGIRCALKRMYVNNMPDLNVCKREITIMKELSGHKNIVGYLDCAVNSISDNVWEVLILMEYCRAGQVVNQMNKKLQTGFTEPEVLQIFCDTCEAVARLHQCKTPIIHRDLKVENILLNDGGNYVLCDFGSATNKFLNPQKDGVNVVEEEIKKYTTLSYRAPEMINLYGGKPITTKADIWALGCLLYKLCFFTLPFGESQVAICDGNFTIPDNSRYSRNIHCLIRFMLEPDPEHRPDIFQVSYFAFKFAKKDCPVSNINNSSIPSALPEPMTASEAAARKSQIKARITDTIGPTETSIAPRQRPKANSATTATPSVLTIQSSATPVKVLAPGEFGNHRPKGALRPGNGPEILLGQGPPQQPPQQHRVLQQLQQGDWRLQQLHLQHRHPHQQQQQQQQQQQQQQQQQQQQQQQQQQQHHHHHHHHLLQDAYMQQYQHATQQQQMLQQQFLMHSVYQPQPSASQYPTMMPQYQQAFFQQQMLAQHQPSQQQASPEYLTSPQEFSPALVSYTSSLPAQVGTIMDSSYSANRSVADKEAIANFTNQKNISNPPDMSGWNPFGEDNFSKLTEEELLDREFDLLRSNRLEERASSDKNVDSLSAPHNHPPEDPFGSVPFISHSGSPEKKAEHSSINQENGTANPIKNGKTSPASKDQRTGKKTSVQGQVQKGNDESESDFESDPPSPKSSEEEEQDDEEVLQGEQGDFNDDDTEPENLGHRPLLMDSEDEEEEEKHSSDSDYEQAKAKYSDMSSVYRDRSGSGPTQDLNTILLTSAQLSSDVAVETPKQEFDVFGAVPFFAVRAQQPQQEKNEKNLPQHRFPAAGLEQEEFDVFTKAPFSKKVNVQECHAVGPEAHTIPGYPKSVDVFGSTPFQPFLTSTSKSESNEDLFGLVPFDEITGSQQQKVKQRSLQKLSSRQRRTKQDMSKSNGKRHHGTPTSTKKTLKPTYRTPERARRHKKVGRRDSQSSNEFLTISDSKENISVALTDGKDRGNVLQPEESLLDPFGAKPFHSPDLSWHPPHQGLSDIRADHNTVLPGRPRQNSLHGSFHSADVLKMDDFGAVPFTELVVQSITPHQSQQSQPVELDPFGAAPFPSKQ

| Structure (SMILES) | % Binding (BIKE) | % Binding (LTK) | % Binding (TNIK) | % Binding (AKT1) | % Binding (STK16) | % Binding (MYLK2) | % Binding (TTK) | % Binding (DAPK3) | % Binding (PIM2) | % Binding (CSNK2A1) | % Binding (GAK) | % Binding (ABL2) | % Binding (NEK2) | % Binding (FRK) | % Binding (MARK2) | % Binding (RIPK2) | % Binding (PAK3) | % Binding (FLT4) | % Binding (FES) | % Binding (CLK3) | further results |
| --- | --- | --- | --- | --- | --- | --- | --- | --- | --- | --- | --- | --- | --- | --- | --- | --- | --- | --- | --- | --- | --- |
| NC(=O)c1cc(-c2ccncc2)c[nH]1 [Compound A, 4-Pyridin-4-yl-1H-pyrrole-2-carboxylic acid amide] | <50% | <50% | <50% | <50% | <50% | <50% | <50% | 74% | <50% | <50% | <50% | <50% | <50% | <50% | <50% | <50% | <50% | <50% | <50% | <50% | % Binding (YES): <50%; % Binding (ERBB2): <50%; % Binding (EPHB1): <50%; % Binding (ERBB4): <50%; % Binding (TRKA): <50%; % Binding (HCK): <50%; % Binding (ULK3(mouse)): <50%; % Binding (NEK9): <50%; % Binding (CAMK2B): <50%; % Binding (STK10): <50%; % Binding (FER): <50%; % Binding (PTK2B): <50%; % Binding (SRC): <50%; % Binding (PAK6): <50%; % Binding (VEGFR2): <50%; % Binding (FLT3): <50%; % Binding (EPHA4): <50%; % Binding (NEK6): <50%; % Binding (PTK2): <50% |
| COc1cc(OC)c(C=C2C(O)=Nc3ccccc32)c(OC)c1 [IC261, 3-[(2,4,6-trimethoxyphenyl)methylidenyl]-indolin-2-one] | <50% | <50% | <50% | <50% | <50% | <50% | <50% | <50% | <50% | <50% | <50% | <50% | <50% | <50% | <50% | <50% | <50% | <50% | <50% | <50% | % Binding (YES): <50%; % Binding (ERBB2): <50%; % Binding (EPHB1): <50%; % Binding (ERBB4): <50%; % Binding (TRKA): <50%; % Binding (HCK): <50%; % Binding (ULK3(mouse)): <50%; % Binding (NEK9): <50%; % Binding (CAMK2B): <50%; % Binding (STK10): <50%; % Binding (FER): <50%; % Binding (PTK2B): <50%; % Binding (SRC): <50%; % Binding (PAK6): <50%; % Binding (VEGFR2): <50%; % Binding (FLT3): <50%; % Binding (EPHA4): <50%; % Binding (NEK6): <50%; % Binding (PTK2): <50% |
